Measured values taken from paper PMC12040169 (PLOS Biology, 2025).

Assay: in vitro
Conditions: human, hela cells, % viability
In the case of `O=C(Nc1ccc([N+](=O)[O-])cc1)Nc1ccc(N2CCOCC2)c2nonc12` [CBK266885], the viability at 28.5 h, 10 µM is reported as 93.1%. In the case of `COC(=O)c1ccccc1NC(=O)NCc1cc(C)n(C)n1` [CBK266887C], the viability at 28.5 h, 10 µM is reported as 109%. In the case of `O=c1c(-c2nncn2-c2ccccc2)coc2c(O)c(O)ccc12` [CBK266889], the viability at 28.5 h, 10 µM is reported as 102%. For `Cc1ccc2nc(C)cc(C(=O)NNC(=O)Nc3ccc([N+](=O)[O-])cc3)c2c1` [CBK266890], the viability at 28.5 h, 10 µM was 98.8%. In the case of `COc1ccc(NC(=S)N2CCN(C/C=C/c3ccccc3)CC2)cc1OC` [CBK266891], the viability at 28.5 h, 10 µM is reported as 88.7%. With `COC(=O)c1c(NC(=S)Nc2cnccn2)sc2c1CCC(C)C2` (centres unmarked) [CBK266893] the viability at 28.5 h, 10 µM was 94.2%. Work on `Cc1ccc(C)c(S(=O)(=O)Nc2ccc(O)c(Sc3nnc[nH]3)c2)c1` [CBK266894] yielded a viability at 28.5 h, 10 µM of 95.2%. In the case of `S=C(NCc1ccco1)NCc1cn(-c2ccccc2)nc1-c1ccccc1` [CBK266895], the viability at 28.5 h, 10 µM is reported as 112%. Molecule `Cc1cccc(NC(=O)C(Cc2ccccc2)C(=O)Nc2cccc(C)c2)c1` [CBK266899] has a viability at 28.5 h, 10 µM of 91.9%. `O=C(COc1ccccc1)NC1C(=O)N2C(C(=O)O)=C(Cl)CSC12` (centres unmarked) [CBK266903] gave a viability at 28.5 h, 10 µM of 92.7%. Molecule `O=C(Cc1ccccc1[N+](=O)[O-])NNC(=S)Nc1ccc(F)c(Cl)c1` [CBK266904] has a viability at 28.5 h, 10 µM of 101%. In the case of `O=C(O)CCNS(=O)(=O)c1ccc2[nH]c(=O)[nH]c2c1` [CBK266906], the viability at 28.5 h, 10 µM is reported as 91%. Molecule `O=C(NNC(=O)C1CCN(S(=O)(=O)c2ccc(Br)cc2)CC1)NC12CC3CC(CC(C3)C1)C2` [CBK266907] has a viability at 28.5 h, 10 µM of 94.5%. In the case of `Cc1cc(F)ccc1S(=O)(=O)N(C(=O)c1ccncc1)c1ccc(OC(=O)c2ccncc2)cc1` [CBK266909], the viability at 28.5 h, 10 µM is reported as 91.1%. `CN(C)CCCNC(=S)NCc1ccc(Cl)cc1` [CBK266910] showed a viability at 28.5 h, 10 µM of 97.3%. `CCC(C)c1ccc(OCC(=O)Nc2ccc3[nH]c(=O)[nH]c3c2)cc1` (centres unmarked) [CBK266911] showed a viability at 28.5 h, 10 µM of 105%. For `S=C(NCCc1ccccc1)NCCn1cc(Cl)cn1` [CBK266912], the viability at 28.5 h, 10 µM was 103%. `COc1ccc(Cl)cc1S(=O)(=O)N1CCN(Cc2ccc3c(c2)OCO3)CC1` [CBK266913] showed a viability at 28.5 h, 10 µM of 98.5%. For `S=C(NCCn1cc(Br)cn1)NCc1ccco1` [CBK266914], the viability at 28.5 h, 10 µM was 95.5%. With `O=C(CC(NC1CCCCC1)C(=O)O)Nc1cccc(Cl)c1` (centres unmarked) [CBK266916] the viability at 28.5 h, 10 µM was 98.5%. `NS(=O)(=O)c1ccc(NC(S)=Nc2ccc(S(=O)(=O)N3CCCC3)cc2)cc1` [CBK266918] gave a viability at 28.5 h, 10 µM of 80.3%. Molecule `COc1ccc(Cl)cc1NC(=S)NNC(=O)c1cc(C)nc2ccccc12` [CBK266920] has a viability at 28.5 h, 10 µM of 50.5%. For `CC(C)CNC(=S)NNC(=O)CC(C)O` (centres unmarked) [CBK266921], the viability at 28.5 h, 10 µM was 93.9%. With `COc1ccc(C(=O)CCC(=O)Nc2cccnc2)c(OC)c1` [CBK266923] the viability at 28.5 h, 10 µM was 105%. With `Cc1ccccc1NC(=O)CC(C(=O)O)N(C)C` (centres unmarked) [CBK266924] the viability at 28.5 h, 10 µM was 103%. `COC(=O)c1c(NC(=S)NCc2ccc(S(N)(=O)=O)cc2)sc2c1CCC2` [CBK266926] gave a viability at 28.5 h, 10 µM of 88.5%. Molecule `NS(=O)(=O)c1ccc(NC(=S)NNS(=O)(=O)c2ccc(Br)cc2)cc1` [CBK266928] has a viability at 28.5 h, 10 µM of 111%. Work on `COc1ccc(NC(=O)Nc2nn(Cc3ccc(Cl)cc3Cl)cc2Br)cc1OC` [CBK266930] yielded a viability at 28.5 h, 10 µM of 101%. With `CN(CC(=O)N1CCC(Cc2ccccc2)CC1)S(=O)(=O)c1ccc2ccccc2c1` [CBK266931] the viability at 28.5 h, 10 µM was 78.2%. Molecule `CS(=O)(=O)N(CC(=O)Nc1ccc(S(=O)(=O)N2CCCCCC2)cc1)c1ccc(F)cc1` [CBK266932] has a viability at 28.5 h, 10 µM of 91.8%. Work on `COC(=O)c1cc(C)sc1NC(=S)Nc1ccn(Cc2ccc(Br)cc2)n1` [CBK266934] yielded a viability at 28.5 h, 10 µM of 99.6%. In the case of `COC(=O)c1c(NC(=S)Nc2cnccn2)sc2c1CCC2` [CBK266935], the viability at 28.5 h, 10 µM is reported as 90.3%. `S=C(Nc1ncn(Cc2ccc(Cl)c(Cl)c2)n1)Nc1ccc(Br)cc1Cl` [CBK266940] showed a viability at 28.5 h, 10 µM of 92.7%. With `CC(=O)c1ccc(NC(=O)NNS(=O)(=O)c2ccc(F)cc2)cc1` [CBK266944] the viability at 28.5 h, 10 µM was 109%. `COc1ccc(-c2c(C)nn3c(=O)c(Cc4ccccc4)c(C)[nH]c23)cc1` [CBK266951] showed a viability at 28.5 h, 10 µM of 94.2%. Molecule `CN(C)C(CC(=O)Nc1cccc(Cl)c1Cl)C(=O)O` (centres unmarked) [CBK266952] has a viability at 28.5 h, 10 µM of 107%. `Cc1cc(=O)oc2cc(NC(=S)NNC(=O)C3CCN(Cc4ccc(F)cc4Cl)CC3)ccc12` [CBK266953] gave a viability at 28.5 h, 10 µM of 99.4%. `COc1ccc(NC(=O)CC(C(=O)O)N2CCOCC2)cc1` (centres unmarked) [CBK266955] gave a viability at 28.5 h, 10 µM of 101%. With `O=C(O)Cc1ccc(NC(=S)Nc2ccc([N+](=O)[O-])cc2)cc1` [CBK266959] the viability at 28.5 h, 10 µM was 98.7%. `O=C(Nc1ccc(N2CCN(Cc3ccccc3)CC2)cc1)c1nc[nH]n1` [CBK266960] gave a viability at 28.5 h, 10 µM of 105%. `Cn1nc([N+](=O)[O-])nc1Sc1nnnn1-c1ccc(C(=O)O)cc1` [CBK266961] gave a viability at 28.5 h, 10 µM of 109%. In the case of `COC(=O)c1c(NC(=S)Nc2ccc(Br)cn2)sc2c1CCC(C)C2` (centres unmarked) [CBK266962], the viability at 28.5 h, 10 µM is reported as 94.6%. `Cc1nn(C)c(C(=O)NNC(=S)Nc2ccc(S(N)(=O)=O)cc2)c1Br` [CBK266963] showed a viability at 28.5 h, 10 µM of 92.5%. For `CN(C)CCNC(=S)Nc1ccc([N+](=O)[O-])cc1` [CBK266964], the viability at 28.5 h, 10 µM was 97.7%. With `CCn1ncc(CN2CCN(C(=S)Nc3ccccc3C(F)(F)F)CC2)c1C` [CBK266968] the viability at 28.5 h, 10 µM was 96.2%. With `NS(=O)(=O)c1ccc(NC(=S)NNC(=O)c2cc(Br)ccc2Cl)cc1` [CBK266970] the viability at 28.5 h, 10 µM was 89.3%. `O=C(CN1C(=O)c2ccccc2S1(=O)=O)Nc1ccccc1C(=O)N1CCOCC1` [CBK266975] gave a viability at 28.5 h, 10 µM of 93.3%. `O=C(CC(NC1CCCC1)C(=O)O)Nc1ccc(F)cc1` (centres unmarked) [CBK266976] gave a viability at 28.5 h, 10 µM of 93.9%. In the case of `CC(=O)c1ccc(NC(=O)COn2nnc3ccc([N+](=O)[O-])cc32)cc1` [CBK266980], the viability at 28.5 h, 10 µM is reported as 101%. `Cc1[nH]c2ccccc2c1Cc1n[nH]c(=S)n1Cc1ccccc1` [CBK266985] showed a viability at 28.5 h, 10 µM of 99.5%. Work on `COc1ccc(OCC(=O)Nc2ccc3c(c2)nc2n3CCN(Cc3ccccc3)C2)cc1` [CBK266989] yielded a viability at 28.5 h, 10 µM of 97.6%. Molecule `Cc1ccc(-c2c(C(=O)NNC(=S)NCc3ccco3)csc2C)cc1` [CBK266992] has a viability at 28.5 h, 10 µM of 96.3%. `CN(C)Cc1cc(C(C)(C)C)cc(CN(C)C)c1O` [CBK266994] showed a viability at 28.5 h, 10 µM of 98.4%. For `Cc1c(Cc2ccccc2)c(=O)oc2c(CN3CCCC(C)C3)c(O)ccc12` (centres unmarked) [CBK266995], the viability at 28.5 h, 10 µM was 93.2%. For `CC(=O)c1cccc(NC(=O)Nc2cccc(S(=O)(=O)N3CCOCC3)c2)c1` [CBK266996], the viability at 28.5 h, 10 µM was 89.9%. For `O=c1[nH]c2ccc(S(=O)(=O)Nc3ccc(-c4ccccc4)cc3)cc2[nH]1` [CBK266999], the viability at 28.5 h, 10 µM was 99.8%. `O=C(O)C(CC(=O)N1CCOCC1)NCc1ccccc1` (centres unmarked) [CBK267000] gave a viability at 28.5 h, 10 µM of 100%. `Cc1cc(C)c(NS(=O)(=O)c2ccc(NC(=S)Nc3ccc(S(N)(=O)=O)cc3)cc2)c(C)c1` [CBK267005] gave a viability at 28.5 h, 10 µM of 94.2%. Work on `CC(C)(O)C#Cc1ccc(C(=O)N2CCN(C/C=C/c3ccccc3)CC2)s1` [CBK267007] yielded a viability at 28.5 h, 10 µM of 99.5%. In the case of `O=C(CC(C(=O)O)N1CCOCC1)Nc1ccccc1` (centres unmarked) [CBK267008], the viability at 28.5 h, 10 µM is reported as 111%. `Cc1nnc(N2C(=O)c3oc4ccc(Cl)cc4c(=O)c3C2c2cccnc2)s1` (centres unmarked) [CBK267010] showed a viability at 28.5 h, 10 µM of 105%. Molecule `COc1cc([N+](=O)[O-])cc2cc(C(=O)NNC(=O)c3ccccc3Cl)c(=O)oc12` [CBK267011] has a viability at 28.5 h, 10 µM of 92.8%.
